{"source": "patent US7498127B2", "about": "“Method of screening cell growth inhibitor and cell growth inhibitor” (priority 2002, dated 2009)", "tested_on": "nuclear export of the PLZF protein", "test": "Inhibitory effect against the nuclear export of the PLZF protein by processing (CFP-PLZF in nucleus, TPA treatment)", "format": "cell-based, Human", "conditions": "HT1080/HB-EGF transfected with CFP-PLZF; 100 nM TPA 60 min in copresence of LMB 10 ng/ml; FIG. 7", "procedure": "Each transfectant containing CFP-PLZF was cultured for 24 hours, and then 100 nM TPA was added thereto for treatment for 60 min. The number (N) of the cells expressing CFP-PLZF in the nucleus and the number (C) of the cells in which CFP-PLZF has leaked into the cytoplasm are counted under observation with a fluorescent microscope before and after the TPA treatment, and the ratio of the number (N) of the cells expressing CFP-PLZF in the nucleus to the total number (N+C) of the cells expressing CFP-PLZF is calculated and thus obtained (N/(N+C)×100 (%)). The wild-type HT1080 cells (the above described 1)) were used as the control for comparison.\nHT1080/HB-EGF to which CFP-PLZF had been transfected (see Test Example 3) was cultured for 24 hours, and then treated with 100 nM TPA in the copresence of LMB (10 ng/ml) for 60 min. The number of the cells expressing CFP-PLZF in the nucleus was measured with a microscope before and after the TPA treatment and the ratio was calculated.\nAs the control, the ratio of the number of the cells expressing CFP-PLZF before and after the TPA treatment when the TPA treatment was performed without adding LMB was obtained, and compared with the ratio when LMB was added. Thus, the compound LMB to be tested was evaluated. • 3. Test Results"}
{"smiles": "CCC(=C/[C@H](C)C/C=C/C(C)=C/[C@@H](C)C(=O)[C@@H](C)[C@H](O)[C@@H](C)C/C(C)=C/C(=O)O)/C=C/[C@@H]1OC(=O)C=C[C@@H]1C", "note": "[LMB, reptomycin B]", "values": [{"measurement": "inhibition of the nuclear export of the PLZF protein (ratio of cells expressing CFP-PLZF in the nucleus before and after TPA treatment)", "value": "inhibited the nuclear export of the PLZF protein"}]}
